Source: patent US20120029187A1, “HALOALKYLSULFONANILIDE DERIVATIVE” (Nissan Chemical Industries, Ltd., priority 2009, published 2012)

Columns and labels:
Assay type in all cases: in vivo
common ragweed [1] = experiment: Test Example 4: herbicidal effect in foliage treatment; details: dose 3.2 g/a, three weeks after the application
Method in brief: (§1)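 Seeds were spot-sown in boxes of sterilized diluvial soil and raised in a greenhouse (25 to 30° C) for 14 days before a single foliar application. Compounds were applied as emulsifiable concentrates diluted with water, at predetermined doses in g/a. Injury was graded three weeks post-spray.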

giant foxtail [2] = experiment: as above; details: dose 3.2 g/a, three weeks after the application
Method in brief: as §1

common lambsquater [3] = experiment: as above; details: dose 3.2 g/a, three weeks after the application
Method in brief: as §1

water foxtail [4] = experiment: as above; details: dose 3.2 g/a, three weeks after the application
Method in brief: as §1

barnyardgrass [5] = experiment: as above; details: dose 3.2 g/a, three weeks after the application
Method in brief: as §1

posumbu knotweed [6] = experiment: as above; details: dose 3.2 g/a, three weeks after the application
Method in brief: as §1

wild oat [7] = experiment: as above; details: dose 3.2 g/a, three weeks after the application
Method in brief: as §1

redroot pigweed [8] = experiment: as above; details: dose 3.2 g/a, three weeks after the application
Method in brief: as §1

common chickweed [9] = experiment: as above; details: dose 3.2 g/a, three weeks after the application
Method in brief: as §1

large crabgrass [10] = experiment: as above; details: dose 3.2 g/a, three weeks after the application
Method in brief: as §1

beadstraw [11] = experiment: as above; details: dose 3.2 g/a, three weeks after the application
Method in brief: as §1

Italian ryegrass [12] = experiment: as above; details: dose 3.2 g/a, three weeks after the application
Method in brief: as §1

velvetleaf [13] = experiment: as above; details: dose 3.2 g/a, three weeks after the application
Method in brief: as §1

common ragweed [14] = experiment: Test Example 3: herbicidal effects in soil treatment; details: dose 3.2 g/a
Method in brief: (§2)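 Seeds were sown in sterilized diluvial soil and covered with about 1.5 cm of soil. Compounds, formulated as emulsifiable concentrates and diluted with water, were sprayed evenly over the soil surface at set doses in g/a. Herbicidal effect was scored on a rating scale three weeks later.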

giant foxtail [15] = experiment: as above; details: dose 3.2 g/a
Method in brief: as §2

common lambsquater [16] = experiment: as above; details: dose 3.2 g/a
Method in brief: as §2

water foxtail [17] = experiment: as above; details: dose 3.2 g/a
Method in brief: as §2

barnyardgrass [18] = experiment: as above; details: dose 3.2 g/a
Method in brief: as §2

posumbu knotweed [19] = experiment: as above; details: dose 3.2 g/a
Method in brief: as §2

wild oat [20] = experiment: as above; details: dose 3.2 g/a
Method in brief: as §2

redroot pigweed [21] = experiment: as above; details: dose 3.2 g/a
Method in brief: as §2

common chickweed [22] = experiment: as above; details: dose 3.2 g/a
Method in brief: as §2

large crabgrass [23] = experiment: as above; details: dose 3.2 g/a
Method in brief: as §2

beadstraw [24] = experiment: as above; details: dose 3.2 g/a
Method in brief: as §2

Italian ryegrass [25] = experiment: as above; details: dose 3.2 g/a
Method in brief: as §2

velvetleaf [26] = experiment: as above; details: dose 3.2 g/a
Method in brief: as §2

barnyardgrass [27] = experiment: Test Example 1: herbicidal effects in preemergence treatment under submerged conditions; details: dose 2.52 g/a
Method in brief: (§3)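 Score 0–5 by mortality (5: ≥90%; 0: <5%), read 3 weeks post-application. Paddy-type cups: alluvial soil under 4 cm water, weeds seeded plus transplanted 2.5-leaf rice; diluted EC dosed onto water surface same day as sowing, g/a basis; greenhouse 25 to 30° C.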

bulrush [28] = experiment: as above; details: dose 2.52 g/a
Method in brief: as §3

ducksalad [29] = experiment: as above; details: dose 2.52 g/a
Method in brief: as §3

transplanted rice = experiment: Test Example 1: preemergence treatment under submerged conditions, effect on crop; details: dose 2.52 g/a
Method in brief: as §3

barnyardgrass [30] = experiment: Test Example 2: herbicidal effects during the vegetation period under submerged conditions; details: treatment during the vegetation period under submerged conditions; dose 2.52 g/a
Method in brief: (§4)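 Barnyardgrass, bulrush and ducksalad were co-sown in alluvial soil flooded to 4 cm and grown in a greenhouse at 25 to 30° C. At the 1- or 2-leaf stage, water-diluted emulsifiable concentrates went onto the water surface at set doses (g/a). Herbicidal effect was scored three weeks later on a graded scale.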

bulrush [31] = experiment: as above; details: treatment during the vegetation period under submerged conditions; dose 2.52 g/a
Method in brief: as §4

ducksalad [32] = experiment: as above; details: treatment during the vegetation period under submerged conditions; dose 2.52 g/a
Method in brief: as §4

| Structure (SMILES) | J: common ragweed, herbicidal effect (common ragweed [1]) | E: giant foxtail, herbicidal effect (giant foxtail [2]) | L: common lambsquater, herbicidal effect (common lambsquater [3]) | G: water foxtail, herbicidal effect (water foxtail [4]) | A: barnyardgrass, herbicidal effect (barnyardgrass [5]) | M: posumbu knotweed, herbicidal effect (posumbu knotweed [6]) | F: wild oat, herbicidal effect (wild oat [7]) | K: redroot pigweed, herbicidal effect (redroot pigweed [8]) | N: common chickweed, herbicidal effect (common chickweed [9]) | D: large crabgrass, herbicidal effect (large crabgrass [10]) | O: beadstraw, herbicidal effect (beadstraw [11]) | H: Italian ryegrass, herbicidal effect (Italian ryegrass [12]) | I: velvetleaf, herbicidal effect (velvetleaf [13]) | herbicidal effect, J: common ragweed (common ragweed [14]) | herbicidal effect, E: giant foxtail (giant foxtail [15]) | herbicidal effect, L: common lambsquater (common lambsquater [16]) | herbicidal effect, G: water foxtail (water foxtail [17]) | herbicidal effect, A: barnyardgrass (barnyardgrass [18]) | herbicidal effect, M: posumbu knotweed (posumbu knotweed [19]) | herbicidal effect, F: wild oat (wild oat [20]) | other results |
| --- | --- | --- | --- | --- | --- | --- | --- | --- | --- | --- | --- | --- | --- | --- | --- | --- | --- | --- | --- | --- | --- |
| CCOC(=O)N(c1ccccc1CN1OCCCC1=O)S(=O)(=O)C(F)(F)F [III-13] | 4 (mortality of at least 70% and less than 90%) | 5 (mortality of 90% or above (nearly complete death)) | 0 (mortality of less than 5% (almost ineffective)) | 5 (mortality of 90% or above (nearly complete death)) | 5 (mortality of 90% or above (nearly complete death)) | 0 (mortality of less than 5% (almost ineffective)) | 0 (mortality of less than 5% (almost ineffective)) | 0 (mortality of less than 5% (almost ineffective)) | 4 (mortality of at least 70% and less than 90%) | 5 (mortality of 90% or above (nearly complete death)) | 4 (mortality of at least 70% and less than 90%) | 4 (mortality of at least 70% and less than 90%) | 5 (mortality of 90% or above (nearly complete death)) | 5 (mortality of 90% or above (nearly complete death)) | 5 (mortality of 90% or above (nearly complete death)) | 0 (mortality of less than 5% (almost ineffective)) | 5 (mortality of 90% or above (nearly complete death)) | 5 (mortality of 90% or above (nearly complete death)) | 0 (mortality of less than 5% (almost ineffective)) | 3 (mortality of at least 40% and less than 70%) | herbicidal effect, K: redroot pigweed (redroot pigweed [21]): 3 (mortality of at least 40% and less than 70%); herbicidal effect, N: common chickweed (common chickweed [22]): 4 (mortality of at least 70% and less than 90%); herbicidal effect, D: large crabgrass (large crabgrass [23]): 5 (mortality of 90% or above (nearly complete death)); herbicidal effect, O: beadstraw (beadstraw [24]): 0 (mortality of less than 5% (almost ineffective)); herbicidal effect, H: Italian ryegrass (Italian ryegrass [25]): 5 (mortality of 90% or above (nearly complete death)); herbicidal effect, I: velvetleaf (velvetleaf [26]): 5 (mortality of 90% or above (nearly complete death)); A: barnyardgrass, herbicidal effect (evaluation scale 0-5) (barnyardgrass [27]): 5 (mortality of 90% or above (nearly complete death)); B: bulrush, herbicidal effect (evaluation scale 0-5) (bulrush [28]): 5 (mortality of 90% or above (nearly complete death)); C: ducksalad, herbicidal effect (evaluation scale 0-5) (ducksalad [29]): 5 (mortality of 90% or above (nearly complete death)); a: transplanted rice, effect on crop (evaluation scale 0-5) (transplanted rice): 1 (mortality of at least 5% and less than 20%); A: barnyardgrass, herbicidal effect (evaluation scale 0-5) (barnyardgrass [30]): 5 (mortality of 90% or above (nearly complete death)); B: bulrush, herbicidal effect (evaluation scale 0-5) (bulrush [31]): 5 (mortality of 90% or above (nearly complete death)); C: ducksalad, herbicidal effect (evaluation scale 0-5) (ducksalad [32]): 5 (mortality of 90% or above (nearly complete death)) |
| CC(C)COC(=O)N(c1ccccc1CN1OCCCC1=O)S(=O)(=O)C(F)(F)F [III-15] | 4 (mortality of at least 70% and less than 90%) | 4 (mortality of at least 70% and less than 90%) | 0 (mortality of less than 5% (almost ineffective)) | 5 (mortality of 90% or above (nearly complete death)) | 5 (mortality of 90% or above (nearly complete death)) | 0 (mortality of less than 5% (almost ineffective)) | 0 (mortality of less than 5% (almost ineffective)) | 2 (mortality of at least 20% and less than 40%) | 3 (mortality of at least 40% and less than 70%) | 5 (mortality of 90% or above (nearly complete death)) | 3 (mortality of at least 40% and less than 70%) | 3 (mortality of at least 40% and less than 70%) | 4 (mortality of at least 70% and less than 90%) | 3 (mortality of at least 40% and less than 70%) | 5 (mortality of 90% or above (nearly complete death)) | 0 (mortality of less than 5% (almost ineffective)) | 5 (mortality of 90% or above (nearly complete death)) | 5 (mortality of 90% or above (nearly complete death)) | 0 (mortality of less than 5% (almost ineffective)) | 0 (mortality of less than 5% (almost ineffective)) | herbicidal effect, K: redroot pigweed (redroot pigweed [21]): 2 (mortality of at least 20% and less than 40%); herbicidal effect, N: common chickweed (common chickweed [22]): 4 (mortality of at least 70% and less than 90%); herbicidal effect, D: large crabgrass (large crabgrass [23]): 5 (mortality of 90% or above (nearly complete death)); herbicidal effect, O: beadstraw (beadstraw [24]): 0 (mortality of less than 5% (almost ineffective)); herbicidal effect, H: Italian ryegrass (Italian ryegrass [25]): 3 (mortality of at least 40% and less than 70%); herbicidal effect, I: velvetleaf (velvetleaf [26]): 4 (mortality of at least 70% and less than 90%); A: barnyardgrass, herbicidal effect (evaluation scale 0-5) (barnyardgrass [27]): 5 (mortality of 90% or above (nearly complete death)); B: bulrush, herbicidal effect (evaluation scale 0-5) (bulrush [28]): 5 (mortality of 90% or above (nearly complete death)); C: ducksalad, herbicidal effect (evaluation scale 0-5) (ducksalad [29]): 5 (mortality of 90% or above (nearly complete death)); a: transplanted rice, effect on crop (evaluation scale 0-5) (transplanted rice): 2 (mortality of at least 20% and less than 40%); A: barnyardgrass, herbicidal effect (evaluation scale 0-5) (barnyardgrass [30]): 5 (mortality of 90% or above (nearly complete death)); B: bulrush, herbicidal effect (evaluation scale 0-5) (bulrush [31]): 5 (mortality of 90% or above (nearly complete death)); C: ducksalad, herbicidal effect (evaluation scale 0-5) (ducksalad [32]): 5 (mortality of 90% or above (nearly complete death)) |
